According to ChEMBL document CHEMBL1145975, “Tricyclic indole-2-carboxylic acids: highly in vivo active and selective antagonists for the glycine binding site of the NMDA receptor” (J Med Chem, 2003):

Key:
Mus musculus [1] = assay: Number of mice protected from tonic seizures to that of number tested was determined when compound (3 mg/kg) was administered intravenously to 10 mice; assay type: functional
[2] = molecular target: T1, Glutamate receptor ionotropic, NMDA 1 (Rattus norvegicus, UniProt P35439); assay: Affinity for glycine site of N-methyl-D-aspartate glutamate receptor determined by displacement of tritium labeled selective glycine antagonist [3H]- SM-18400; assay type: functional
Mus musculus [3] = species on record: Mus musculus; assay: Effective dose of compound required to inhibit N-methyl D-aspartate induced seizures in mice; assay type: functional
Rattus norvegicus [4] = species on record: Rattus norvegicus; assay: Area under the concentration-time curve from time zero to infinity in whole brain homogenates was determined; assay type: ADME, organism-based; conditions: in vivo
[5] = molecular target: T1, Glutamate receptor ionotropic, NMDA 1; assay: Binding affinity for glycine site of N-methyl-D-aspartate glutamate receptor determined by displacement of [3H]- DCKA (5,7-dichlorokynurenic acid) in rat cortical membranes; assay type: cell membranes, Membrane
[6] = molecular target: Glutamate receptor ionotropic, kainate; assay: Binding affinity for non-NMDA receptor determined by displacement of [3H]- KA (kainic acid) in rat cortical membranes; assay type: cell membranes, Membrane
[7] = Binding affinity for glutamate site of N-methyl-D-aspartate glutamate receptor determined by displacement of [3H]- glutamate in rat cortical membranes; assay type: cell membranes, Membrane
[8] = molecular target: Glutamate receptor ionotropic, AMPA (Rattus norvegicus, UniProt P19490+P19491+P19492+P19493); assay: Binding affinity for non-NMDA receptor determined by displacement of [3H]- AMPA (2-amino-(3-(3-hydroxy-5-methylisoxazole-4-yl)propanoic acid)) in rat cortical membranes; assay type: cell membranes, Membrane
[9] = molecular target: T1, Glutamate receptor ionotropic, NMDA 1; assay: Binding affinity for glycine site of N-methyl-D-aspartate glutamate receptor determined by displacement of [3H]- glycine in rat cortical membranes; assay type: cell membranes, Membrane
Rattus norvegicus [10] = assay: Percent of reduction of cortical infarct volume at dose of 20 mg/kg bolus +20 mg/kg/hr continuous infusion was determined in normotensive rats; assay type: functional

Row | IC50 [2] [nM] | AUC (Rattus norvegicus [4]) [µg·min/g] | Ki [5] [nM] | Ki [6] [nM] | Ki [7] [nM] | Ki [8] [nM] | Ki [9] [nM] | Compound | No. of protected/tested (Mus musculus [1]) | ED50 (Mus musculus [3]) [mg/kg] | Cortical infarct volume (Rattus norvegicus [10]) [%]
1 | 7.6 |  |  |  |  |  |  | O=C(O)Cc1ccccc1NC(=O)C[C@@H]1CCc2cc(Cl)cc3[nH]c(C(=O)O)c1c23 | 3 |  | 
2 | 18 |  |  |  |  |  |  | NCc1ccc(NC(=O)C[C@@H]2CCc3cc(Cl)cc4[nH]c(C(=O)O)c2c34)cc1 | 3 |  | 
3 | 29 |  |  |  |  |  |  | C[C@H](C(=O)O)c1cc(CN)ccc1NC(=O)C[C@@H]1CCc2cc(Cl)cc3[nH]c(C(=O)O)c1c23 | 4 | 3.7 | 
4 | 2.7 | 10 | 1 | > 10000 | > 10000 | > 10000 | 11 | C[C@@H](C(=O)O)c1cc(CN)ccc1NC(=O)C[C@@H]1CCc2cc(Cl)cc3[nH]c(C(=O)O)c1c23 | 5 | 2.3 | 84
5 | 1.5 |  |  |  |  |  |  | NCc1ccc(NC(=O)C[C@@H]2CCc3cc(Cl)cc4[nH]c(C(=O)O)c2c34)c(CC(=O)O)c1 | 5 | 1.8 | 30
6 | 19 |  |  |  |  |  |  | O=C(C[C@@H]1CCc2cc(Cl)cc3[nH]c(C(=O)O)c1c23)Nc1ccccc1 | 3 |  | 
7 | 1 | 3.3 |  |  |  |  |  | NCc1ccc(NC(=O)C[C@@H]2CCc3cc(Cl)cc4[nH]c(=O)c(=O)n2c34)c(OCC(=O)O)c1 | 10 | 0.41 | 50
8 | 1.2 |  |  |  |  |  |  | NCc1ccc(NC(=O)C[C@@H]2CCc3cc(Cl)cc4[nH]c(C(=O)O)c2c34)c(OCC(=O)O)c1 (stereo in doubt; 3a) | 2 | 5 | 
9 | 33 |  |  |  |  |  |  | NCc1ccc(NC(=O)C[C@@H]2CCc3cc(Cl)cc4[nH]c(C(=O)O)c2c34)c(OCC(=O)O)c1 (stereo in doubt; 3b) |  |  | 
